Measurements reported in patent US12077503B2, “Substituted cyclic amides and their use as herbicides” (FMC CORPORATION, priority 2015, dated 2024).

How the values were obtained:
Format in all cases: in vivo
[1] = system: giant foxtail (Setaria faberii); experiment: Test A postemergence; conditions: for Foxtail, Giant plant response rating: 125 g ai/ha, visual injury rating on 0 to 100 scale (0 no effect, 100 complete control), approx. 10 d; for Plant response rating, Foxtail, Giant: 500 g ai/ha
From the text: (§1) Seeds of plant species selected from barnyardgrass (Echinochloa crus-galli), Kochia (Kochia scoparia), ragweed (common ragweed, Ambrosia elatior), ryegrass, Italian (Italian ryegrass, Lolium multiflorum), crabgrass, large (Digitaria sanguinalis), giant foxtail (Setaria faberii), green foxtail (Setaria viridis), morningglory (Ipomoea spp.), pigweed (Amaranthus retroflexus), velvetleaf (Abutilon theophrasti), wheat (Triticum aestivum), and corn (Zea mays) were planted into a blend of loam soil and sand and treated preemergence with a directed soil spray using test chemicals formulated in anon-phytotoxic solvent mixture which included a surfactant.
(§2) At the same time, plants selected from these crop and weed species and also blackgrass (Alopecurus myosuroides), and Galium (catchweed bedstraw, Galium aparine) were planted in pots containing the same blend of loam soil and sand and treated with postemergence applications of test chemicals formulated in the same manner. Plants ranged in height from 2 to 10 cm and were in the one- to two-leaf stage for the postemergence treatment. Treated plants and untreated controls were maintained in a greenhouse for approximately 10 d, after which time all treated plants were compared to untreated controls and visually evaluated for injury. Plant response ratings, summarized in Table A, are based on a 0 to 100 scale where 0 is no effect and 100 is complete control. A dash (-) response means no test result.

[2] = system: wheat (Triticum aestivum); experiment: Test A postemergence; conditions: for Wheat plant response rating: 125 g ai/ha, visual injury rating on 0 to 100 scale (0 no effect, 100 complete control), approx. 10 d; for Plant response rating, Wheat: 500 g ai/ha
From the text: as §1, §2

[3] = system: Galium (catchweed bedstraw, Galium aparine); experiment: Test A postemergence; conditions: for Galium plant response rating: 125 g ai/ha, visual injury rating on 0 to 100 scale (0 no effect, 100 complete control), approx. 10 d; for Plant response rating, Galium: 500 g ai/ha
From the text: as §1, §2

[4] = system: ryegrass, Italian (Italian ryegrass, Lolium multiflorum); experiment: Test A postemergence; conditions: for Ryegrass, Italian plant response rating: 125 g ai/ha, visual injury rating on 0 to 100 scale (0 no effect, 100 complete control), approx. 10 d; for Plant response rating, Ryegrass, Italian: 500 g ai/ha
From the text: as §1, §2

[5] = system: blackgrass (Alopecurus myosuroides); experiment: Test A postemergence; conditions: for Blackgrass plant response rating: 125 g ai/ha, visual injury rating on 0 to 100 scale (0 no effect, 100 complete control), approx. 10 d; for Plant response rating, Blackgrass: 500 g ai/ha
From the text: as §1, §2

[6] = system: ragweed (common ragweed, Ambrosia elatior); experiment: Test A postemergence; conditions: for Ragweed plant response rating: 125 g ai/ha, visual injury rating on 0 to 100 scale (0 no effect, 100 complete control), approx. 10 d; for Plant response rating, Ragweed: 500 g ai/ha
From the text: as §1, §2

Kochia (Kochia scoparia) [7] = experiment: Test A postemergence; conditions: for Kochia plant response rating: 125 g ai/ha, visual injury rating on 0 to 100 scale (0 no effect, 100 complete control), approx. 10 d; for Plant response rating, Kochia: 500 g ai/ha
From the text: as §1, §2

[8] = system: pigweed (Amaranthus retroflexus); experiment: Test A postemergence; conditions: for Pigweed plant response rating: 125 g ai/ha, visual injury rating on 0 to 100 scale (0 no effect, 100 complete control), approx. 10 d; for Plant response rating, Pigweed: 500 g ai/ha
From the text: as §1, §2

[9] = system: barnyardgrass (Echinochloa crus-galli); experiment: Test A postemergence; conditions: for Barnyardgrass plant response rating: 125 g ai/ha, visual injury rating on 0 to 100 scale (0 no effect, 100 complete control), approx. 10 d; for Plant response rating, Barnyardgrass: 500 g ai/ha
From the text: as §1, §2

corn (Zea mays) = experiment: Test A postemergence; conditions: for Corn plant response rating: 125 g ai/ha, visual injury rating on 0 to 100 scale (0 no effect, 100 complete control), approx. 10 d; for Plant response rating, Corn: 500 g ai/ha
From the text: as §1, §2

[10] = system: giant foxtail (Setaria faberii); experiment: Test A preemergence; conditions: for Plant response rating, Foxtail, Giant: 125 g ai/ha; for Foxtail, Giant plant response rating (0 to 100 scale, 0 is no effect, 100 is complete control): 500 g ai/ha, visual injury approx. 10 d
From the text: as §1, §2

[11] = system: ryegrass, Italian (Italian ryegrass, Lolium multiflorum); experiment: Test A preemergence; conditions: for Plant response rating, Ryegrass, Italian: 125 g ai/ha; for Ryegrass, Italian plant response rating (0 to 100 scale, 0 is no effect, 100 is complete control): 500 g ai/ha, visual injury approx. 10 d
From the text: as §1, §2

[12] = system: ragweed (common ragweed, Ambrosia elatior); experiment: Test A preemergence; conditions: for Plant response rating, Ragweed: 125 g ai/ha; for Ragweed plant response rating (0 to 100 scale, 0 is no effect, 100 is complete control): 500 g ai/ha, visual injury approx. 10 d
From the text: as §1, §2

Kochia (Kochia scoparia) [13] = experiment: Test A preemergence; conditions: for Plant response rating, Kochia: 125 g ai/ha; for Kochia plant response rating (0 to 100 scale, 0 is no effect, 100 is complete control): 500 g ai/ha, visual injury approx. 10 d
From the text: as §1, §2

[14] = system: pigweed (Amaranthus retroflexus); experiment: Test A preemergence; conditions: for Plant response rating, Pigweed: 125 g ai/ha; for Pigweed plant response rating (0 to 100 scale, 0 is no effect, 100 is complete control): 500 g ai/ha, visual injury approx. 10 d
From the text: as §1, §2

[15] = system: barnyardgrass (Echinochloa crus-galli); experiment: Test A preemergence; conditions: for Plant response rating, Barnyardgrass: 125 g ai/ha; for Barnyardgrass plant response rating (0 to 100 scale, 0 is no effect, 100 is complete control): 500 g ai/ha, visual injury approx. 10 d
From the text: as §1, §2

[16] = Postemergence, 0 to 100 scale where 0 is no effect and 100 is complete control
[17] = Preemergence, visual injury after approximately 10 d, 0 to 100 scale where 0 is no effect and 100 is complete control
[18] = postemergence, 0 to 100 scale, 0 no effect, 100 complete control
[19] = preemergence, 0 to 100 scale (0 no effect, 100 complete control)

O=C1NCC(c2cc(Br)cs2)C1C(=O)Nc1cccc(F)c1F (racemic) [Compound 510]
Foxtail, Giant plant response rating ([1]; postemergence): 10 | Plant response rating, Foxtail, Giant [1, 16]: 30 | Wheat plant response rating ([2]; postemergence): 0 | Plant response rating, Wheat [2, 16]: 0 | Galium plant response rating ([3]; postemergence): 0 | Plant response rating, Galium [3, 16]: 0 | Ryegrass, Italian plant response rating ([4]; postemergence): 0 | Plant response rating, Ryegrass, Italian [4, 16]: 20 | Blackgrass plant response rating ([5]; postemergence): 0 | Plant response rating, Blackgrass [5, 16]: 40 | Ragweed plant response rating ([6]; postemergence): 0 | Plant response rating, Ragweed [6, 16]: 30 | Kochia plant response rating (Kochia (Kochia scoparia) [7]; postemergence): 0 | Plant response rating, Kochia (Kochia (Kochia scoparia) [7]; [16]): 40 | Pigweed plant response rating ([8]; postemergence): 0 | Plant response rating, Pigweed [8, 16]: 0 | Barnyardgrass plant response rating ([9]; postemergence): 60 | Plant response rating, Barnyardgrass [9, 16]: 70 | Corn plant response rating (corn (Zea mays); postemergence): 0 | Plant response rating, Corn (corn (Zea mays); [16]): 0 | Plant response rating, Foxtail, Giant [10, 17]: 60 | Foxtail, Giant plant response rating (0 to 100 scale, 0 is no effect, 100 is complete control) ([10]; Preemergence): 70 | Plant response rating, Ryegrass, Italian [11, 17]: 0 | Ryegrass, Italian plant response rating (0 to 100 scale, 0 is no effect, 100 is complete control) ([11]; Preemergence): 10 | Plant response rating, Ragweed [12, 17]: 30 | Ragweed plant response rating (0 to 100 scale, 0 is no effect, 100 is complete control) ([12]; Preemergence): 50 | Plant response rating, Kochia (Kochia (Kochia scoparia) [13]; [17]): 30 | Kochia plant response rating (0 to 100 scale, 0 is no effect, 100 is complete control) (Kochia (Kochia scoparia) [13]; Preemergence): 50 | Plant response rating, Pigweed [14, 17]: 0 | Pigweed plant response rating (0 to 100 scale, 0 is no effect, 100 is complete control) ([14]; Preemergence): 0 | Plant response rating, Barnyardgrass [15, 17]: 60 | Barnyardgrass plant response rating (0 to 100 scale, 0 is no effect, 100 is complete control) ([15]; Preemergence): 80

CC(=O)c1ccccc1NC(=O)C1C(=O)NCC1c1ccc(F)c(F)c1 (stereo not shown) [Compound 418]
Foxtail, Giant plant response rating ([1]; postemergence): 0 | Plant response rating, Foxtail, Giant [1, 18]: 0 | Wheat plant response rating ([2]; postemergence): 0 | Plant response rating, Wheat [2, 18]: 0 | Galium plant response rating ([3]; postemergence): 0 | Plant response rating, Galium [3, 18]: 0 | Ryegrass, Italian plant response rating ([4]; postemergence): 0 | Plant response rating, Ryegrass, Italian [4, 18]: 0 | Blackgrass plant response rating ([5]; postemergence): 0 | Plant response rating, Blackgrass [5, 18]: 0 | Ragweed plant response rating ([6]; postemergence): 0 | Plant response rating, Ragweed [6, 18]: 0 | Kochia plant response rating (Kochia (Kochia scoparia) [7]; postemergence): 0 | Plant response rating, Kochia (Kochia (Kochia scoparia) [7]; [18]): 0 | Pigweed plant response rating ([8]; postemergence): 0 | Plant response rating, Pigweed [8, 18]: 0 | Barnyardgrass plant response rating ([9]; postemergence): 0 | Plant response rating, Barnyardgrass [9, 18]: 0 | Corn plant response rating (corn (Zea mays); postemergence): 0 | Plant response rating, Corn (corn (Zea mays); [18]): 0 | Plant response rating, Foxtail, Giant [10, 19]: 0 | Foxtail, Giant plant response rating (0 to 100 scale, 0 is no effect, 100 is complete control) ([10]; Preemergence): 0 | Plant response rating, Ryegrass, Italian [11, 19]: 0 | Ryegrass, Italian plant response rating (0 to 100 scale, 0 is no effect, 100 is complete control) ([11]; Preemergence): 0 | Plant response rating, Ragweed [12, 19]: 0 | Ragweed plant response rating (0 to 100 scale, 0 is no effect, 100 is complete control) ([12]; Preemergence): 0 | Plant response rating, Kochia (Kochia (Kochia scoparia) [13]; [19]): 0 | Kochia plant response rating (0 to 100 scale, 0 is no effect, 100 is complete control) (Kochia (Kochia scoparia) [13]; Preemergence): 0 | Plant response rating, Pigweed [14, 19]: 0 | Pigweed plant response rating (0 to 100 scale, 0 is no effect, 100 is complete control) ([14]; Preemergence): 0 | Plant response rating, Barnyardgrass [15, 19]: 0 | Barnyardgrass plant response rating (0 to 100 scale, 0 is no effect, 100 is complete control) ([15]; Preemergence): 0
